Patent US20230233569A1 (Revolution Medicines, Inc., priority 2020, published 2023)
Where “and” joins values, the source holds several entries; their conditions need not be identical. Equal entries are not always repeated.

What was measured:
Format in all cases: biochemical
KRAS Q61H = KRAS Q61H (Homo sapiens, UniProt P01116+P62937, Q61H); assay: Disruption of BRAF RBD interaction with Ras (FRET / MOA assay, with Cyclophilin A); settings: KRAS Q61H; read-out: KRAS Q61H FRET data IC50
Text: (§1) Disruption of B-Raf Ras-Binding Domain (BRAF^RBD) Interaction with K-Ras by Compounds of the Invention (Also Called a FRET Assay or an MOA Assay)
(§2) Note—The following protocol describes a procedure for monitoring disruption of K-Ras G12C (GMP-PNP) binding to BRAF^RBD by a compound of the invention. This protocol may also be executed substituting other Ras proteins or nucleotides.
(§3) The purpose of this biochemical assay was to measure the ability of test compounds to facilitate ternary complex formation between a nucleotide-loaded K-Ras isoform and Cyclophilin A; the resulting ternary complex disrupts binding to a BRAF^RBD construct, inhibiting K-Ras signaling through a RAF effector. Data is reported as IC50 values.
(§4) In assay buffer containing 25 mM HEPES pH 7.3, 0.002% Tween20, 0.1% BSA, 100 mM NaCl and 5 mM MgCl2, tagless Cyclophilin A, His6-K-Ras-GMPPNP, and GST-BRAF^RBD were combined in a 384-well assay plate at final concentrations of 25 μM, 12.5 nM and 50 nM, respectively. Compound was present in plate wells as a 10-point 3-fold dilution series starting at a final concentration of 30 μM. After incubation at 25° C. for 3 hours, a mixture of Anti-His Eu-W1024 and anti-GST allophycocyanin was then added to assay sample wells at final concentrations of 10 nM and 50 nM, respectively, and the reaction incubated for an additional 1.5 hours. […] Compounds that facilitate disruption of a K-Ras:RAF complex were identified as those eliciting a decrease in the TR-FRET ratio relative to DMSO control wells.
as §3, with “BRAF^RBDD” for “BRAF^RBD”

NRAS Q61K = NRAS Q61K (Homo sapiens, UniProt P01111+P62937, Q61K); assay: as above; settings: NRAS Q61K; read-out: NRAS Q61K FRET data IC50
NRAS Q61K, sequence (P01111 whole entry Q61K): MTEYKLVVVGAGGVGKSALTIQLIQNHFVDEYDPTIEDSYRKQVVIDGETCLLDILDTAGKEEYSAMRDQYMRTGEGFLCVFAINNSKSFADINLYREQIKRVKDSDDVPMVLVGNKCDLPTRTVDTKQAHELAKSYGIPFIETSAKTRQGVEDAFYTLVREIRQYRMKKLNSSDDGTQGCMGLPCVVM
NRAS Q61K, sequence (P62937 whole entry): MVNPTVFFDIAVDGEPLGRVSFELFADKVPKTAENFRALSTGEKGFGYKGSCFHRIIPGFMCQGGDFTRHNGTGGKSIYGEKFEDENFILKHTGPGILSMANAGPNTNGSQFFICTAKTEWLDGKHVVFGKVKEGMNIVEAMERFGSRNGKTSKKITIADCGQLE
Text: as §1, §2, §3, §4
as §3, with “BRAF^RBDD” for “BRAF^RBD”

KRAS G12V [1] = biological target: T1, KRAS G12V (Homo sapiens, UniProt P01116+P62937, G12V); assay: as above; settings: KRAS G12V; read-out: KRAS G12V FRET data IC50
T1 sequence (P01116 1-169 isoform P01116-2 G12V limits assumed): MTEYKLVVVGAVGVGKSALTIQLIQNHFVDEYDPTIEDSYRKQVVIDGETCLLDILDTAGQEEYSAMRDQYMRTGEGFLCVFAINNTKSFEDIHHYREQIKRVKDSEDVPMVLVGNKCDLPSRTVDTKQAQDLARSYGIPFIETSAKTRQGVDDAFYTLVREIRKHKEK
T1 sequence (P62937 whole entry): as the sequence (P62937 whole entry) above
Outline: (§5)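 TR-FRET readout: a drop in ratio relative to DMSO wells marks disruption of the K-Ras:BRAF RBD complex via compound-induced K-Ras–Cyclophilin A ternary complex. Dosing used ten 3-fold steps from 30 μM final, 3 h at 25 °C, then Eu-anti-His 10 nM plus APC-anti-GST 50 nM for another 1.5 h. Values are IC50s.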

KRAS G12C [2] = biological target: T2, KRAS G12C (Homo sapiens, UniProt P01116+P62937, G12C); assay: as above; settings: KRAS G12C; read-out: KRAS G12C FRET data IC50
Outline: as §5
Target sequence in this assay (P01116 1-169 isoform P01116-2 G12C): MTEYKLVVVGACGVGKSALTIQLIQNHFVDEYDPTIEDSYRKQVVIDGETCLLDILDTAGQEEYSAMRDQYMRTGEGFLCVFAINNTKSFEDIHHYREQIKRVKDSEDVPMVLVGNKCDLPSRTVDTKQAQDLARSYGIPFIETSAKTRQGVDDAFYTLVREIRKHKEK
Target sequence in this assay (P62937 whole entry): as the sequence (P62937 whole entry) above

KRAS G12D [3] = biological target: T3, KRAS G12D (Homo sapiens, UniProt P01116+P62937, G12D); assay: as above; settings: read-out: KRAS G12D FRET data, IC50
T3 sequence (P01116 1-169 isoform P01116-2 G12D limits assumed): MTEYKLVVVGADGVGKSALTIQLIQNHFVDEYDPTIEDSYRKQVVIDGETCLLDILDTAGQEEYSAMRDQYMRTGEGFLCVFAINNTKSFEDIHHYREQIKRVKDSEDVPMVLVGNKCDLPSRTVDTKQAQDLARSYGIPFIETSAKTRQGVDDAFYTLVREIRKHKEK
T3 sequence (P62937 whole entry): as the sequence (P62937 whole entry) above
Outline: as §5

KRAS G12S [4] = biological target: T4, KRAS G12S (Homo sapiens, UniProt P01116+P62937, G12S); assay: as above; settings: read-out: KRAS G12S FRET data, IC50
T4 sequence (P01116 1-169 isoform P01116-2 G12S limits assumed): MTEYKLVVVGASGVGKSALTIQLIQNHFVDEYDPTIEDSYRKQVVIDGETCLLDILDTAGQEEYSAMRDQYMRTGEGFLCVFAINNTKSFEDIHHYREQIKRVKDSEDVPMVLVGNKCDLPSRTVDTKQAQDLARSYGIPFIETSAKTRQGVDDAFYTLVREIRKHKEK
T4 sequence (P62937 whole entry): as the sequence (P62937 whole entry) above
Outline: as §5

KRAS G13C [5] = biological target: T5, KRAS G13C (Homo sapiens, UniProt P01116+P62937, G13C); assay: as above; settings: KRAS G13C; read-out: KRAS G13C FRET data IC50
Outline: as §5
Target sequence in this assay (P01116 1-169 isoform P01116-2 G13C): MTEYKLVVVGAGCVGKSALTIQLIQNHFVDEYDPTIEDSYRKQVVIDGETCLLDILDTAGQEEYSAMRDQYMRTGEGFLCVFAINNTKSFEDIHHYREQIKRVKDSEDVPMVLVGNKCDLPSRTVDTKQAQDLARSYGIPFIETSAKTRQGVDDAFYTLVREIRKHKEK
Target sequence in this assay (P62937 whole entry): as the sequence (P62937 whole entry) above

KRAS WT [6] = biological target: T6, KRAS WT (Homo sapiens, UniProt P01116+P62937); assay: as above; settings: KRAS WT; read-out: KRAS WT FRET data IC50
T6 sequence (P01116 1-169 isoform P01116-2 limits assumed): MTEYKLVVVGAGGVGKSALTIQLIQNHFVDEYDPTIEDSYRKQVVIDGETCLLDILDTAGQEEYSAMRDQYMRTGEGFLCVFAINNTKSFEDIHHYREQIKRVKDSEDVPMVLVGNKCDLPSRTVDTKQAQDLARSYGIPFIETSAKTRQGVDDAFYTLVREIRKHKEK
T6 sequence (P62937 whole entry): as the sequence (P62937 whole entry) above
Outline: as §5

NRAS Q61R = NRAS Q61R (Homo sapiens, UniProt P01111+P62937, Q61R); assay: as above; settings: NRAS Q61R; read-out: NRAS Q61R FRET data IC50
NRAS Q61R, sequence (P01111 whole entry Q61R): as the sequence (P01111 whole entry Q61K) above, with K61R counted along it
NRAS Q61R, sequence (P62937 whole entry): as the sequence (P62937 whole entry) above
Text: as §1, §2, §3, §4
as §3, with “BRAF^RBDD” for “BRAF^RBD”

KRAS G13D [7] = biological target: T7, KRAS G13D (Homo sapiens, UniProt P01116+P62937, G13D); assay: as above; settings: KRAS G13D; read-out: KRAS G13D FRET data IC50
T7 sequence (P01116 1-169 isoform P01116-2 G13D limits assumed): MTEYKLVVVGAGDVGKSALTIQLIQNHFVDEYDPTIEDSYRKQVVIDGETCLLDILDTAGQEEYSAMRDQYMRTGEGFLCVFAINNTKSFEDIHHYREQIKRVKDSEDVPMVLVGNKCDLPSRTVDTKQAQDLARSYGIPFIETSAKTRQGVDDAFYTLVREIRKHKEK
T7 sequence (P62937 whole entry): as the sequence (P62937 whole entry) above
Outline: as §5

NRAS G12C [8] = biological target: T8, NRAS G12C (Homo sapiens, UniProt P01111+P62937, G12C); assay: as above; settings: NRAS G12C; read-out: NRAS G12C FRET data IC50
T8 sequence (P01111 whole entry G12C): as the sequence (P01111 whole entry Q61K) above, with G12C, K61Q counted along it
T8 sequence (P62937 whole entry): as the sequence (P62937 whole entry) above

KRAS G12D [9] = biological target: T3, KRAS G12D; assay: Ras-Raf disruption / FRET / MOA assay (BRAF RBD); settings: Ras-Raf disruption, with Cyclophilin A; read-out: KRAS G12D FRET data IC50
Outline: (§6)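 Compound-induced Ras–Cyclophilin A ternary complex disrupting BRAF RBD binding, read as IC50 from reduced TR-FRET ratio relative to DMSO. Final: Ras-GMPPNP 12.5 nM, BRAF RBD 50 nM, Cyclophilin A 25 μM, top compound 30 μM (3-fold, 10 points); 3 h at 25 °C, then 1.5 h with detection antibodies.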

KRAS G12S [10] = biological target: T4, KRAS G12S; assay: Ras-Raf disruption / FRET / MOA assay (BRAF RBD); settings: Ras-Raf disruption, with Cyclophilin A; read-out: KRAS G12S FRET data IC50
Outline: as §6

KRAS G12V [11] = biological target: T1, KRAS G12V; assay: Ras-Raf disruption / FRET / MOA assay (BRAF RBD); settings: Ras-Raf disruption, with Cyclophilin A; read-out: KRAS G12V FRET data IC50
Outline: as §6

KRAS G13C [12] = biological target: T5, KRAS G13C; assay: Ras-Raf disruption / FRET / MOA assay (BRAF RBD); settings: Ras-Raf disruption, with Cyclophilin A; read-out: KRAS G13C FRET data IC50
Outline: as §6
Target sequence in this assay (P01116 1-169 isoform P01116-2 G13C limits assumed): as the sequence (P01116 1-169 isoform P01116-2 G13C) above
Target sequence in this assay (P62937 whole entry): as the sequence (P62937 whole entry) above

KRAS G13D [13] = biological target: T7, KRAS G13D; assay: Ras-Raf disruption / FRET / MOA assay (BRAF RBD); settings: Ras-Raf disruption, with Cyclophilin A; read-out: KRAS G13D FRET data IC50
Outline: as §6

KRAS WT [14] = biological target: T6, KRAS WT; assay: Ras-Raf disruption / FRET / MOA assay (BRAF RBD); settings: Ras-Raf disruption, with Cyclophilin A; read-out: KRAS WT FRET data IC50
Outline: as §6

NRAS G12C [15] = biological target: T8, NRAS G12C; assay: Ras-Raf disruption / FRET / MOA assay (BRAF RBD); settings: NRAS G12C; read-out: NRAS G12C FRET data IC50
Outline: as §6

KRAS G12C [16] = biological target: T2, KRAS G12C; assay: Ras-Raf disruption / FRET / MOA assay (BRAF RBD); settings: Ras-Raf disruption, with Cyclophilin A; read-out: KRAS G12C FRET data IC50
Outline: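 TR-FRET read-out after 1.5 h with anti-His Eu-W1024 (10 nM) and anti-GST APC (50 nM), following 3 h at 25 °C of compound (top 30 μM, 3-fold, 10 points) with 25 μM Cyclophilin A, 12.5 nM GMPPNP-loaded K-Ras G12C and 50 nM BRAF RBD; IC50 reported.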
Target sequence in this assay (P01116 1-169 isoform P01116-2 G12C limits assumed): as the sequence (P01116 1-169 isoform P01116-2 G12C) above
Target sequence in this assay (P62937 whole entry): as the sequence (P62937 whole entry) above

KRAS Q61H, sequence (P01116 1-169 isoform P01116-2 Q61H limits assumed): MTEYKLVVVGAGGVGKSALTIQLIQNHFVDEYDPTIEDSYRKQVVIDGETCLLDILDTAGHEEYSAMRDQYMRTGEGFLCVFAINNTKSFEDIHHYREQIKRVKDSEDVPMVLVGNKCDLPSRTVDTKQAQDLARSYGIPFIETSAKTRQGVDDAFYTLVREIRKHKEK
KRAS Q61H, sequence (P62937 whole entry, the tested form may be a part): as the sequence (P62937 whole entry) above

SMILES	IC50 (KRAS Q61H) [nM]	IC50 (NRAS Q61K) [nM]	IC50 (KRAS G12V [1]) [nM]	IC50 (KRAS G12C [2]) [nM]	IC50 (KRAS G12D [3]) [nM]	IC50 (KRAS G12S [4])	IC50 (KRAS G13C [5]) [nM]	IC50 (KRAS WT [6]) [nM]	IC50 (NRAS Q61R) [nM]	also measured
CCn1c(-c2cccnc2[C@H](C)OC)c2c3cc(ccc31)-c1csc(n1)C[C@H](NC(=O)[C@H](C(C)C)N(C)C(=O)[C@H]1[C@@H]3CNC[C@@H]31)C(=O)N1CCC[C@H](N1)C(=O)OCC(C)(C)C2 (atropisomer, axis not shown) [Example A448]	1000 to 10000		> 10000							
C=CC(=O)N1CC[C@H](C(=O)N(C)[C@H](C(=O)N[C@H]2Cc3cc(O)cc(c3)-c3cc(F)c4c(c3)c(c(-c3ccccc3CCOC)n4CC)CC(C)(C)COC(=O)[C@@H]3CCCN(N3)C2=O)C(C)C)C1 [Example A053]	1000 to 10000	> 10000	> 10000	100 to 1000	> 10000	1000 to 10000 nM and > 10000 nM	> 10000	> 10000	> 10000	
C=CC(=O)N1CC[C@H](C(=O)N(C)[C@H](C(=O)N[C@H]2Cc3cc(O)cc(c3)-c3ccc4c(c3)c(c(-c3ccccc3N3CCOCC3)n4CC)CC(C)(C)COC(=O)[C@@H]3CCCN(N3)C2=O)C(C)C)C1 [Example A026]	1000 to 10000	> 10000	> 10000	100 to 1000	> 10000	> 10000 nM	> 10000	> 10000	> 10000	
C=CC(=O)N1CC[C@H](C(=O)N(C)[C@H](C(=O)N[C@H]2Cc3cc(O)cc(c3)-c3ccc4c(c3)c(c(-c3c(F)cccc3CCOC)n4CC)CC(C)(C)COC(=O)[C@@H]3CCCN(N3)C2=O)C(C)C)C1 [Example A025]	1000 to 10000	1000 to 10000	1000 to 10000	100 to 1000	> 10000	1000 to 10000 nM	1000 to 10000	1000 to 10000	> 10000	
CCn1c(-c2cccnc2[C@H](C)OC)c2c3nc(ccc31)-c1csc(n1)C[C@H](NC(=O)[C@H](C(C)C)N(C)C(=O)N1CC(OC)C1)C(=O)N1CCC[C@H](N1)C(=O)OCC(C)(C)C2 (atropisomer, axis not shown) [Example A613]	1000 to 10000									
CCn1c(-c2cnccc2COC)c2c3cc(ccc31)-c1cccc(c1)C[C@H](NC(=O)[C@H](C(C)C)N(C)C(=O)CCN=C=NCCOC)C(=O)N1CCC[C@H](N1)C(=O)OCC(C)(C)C2 [23 A and B]										IC50 (KRAS G12D [9]): 1000 to 10000 nM; IC50 (KRAS G12S [10]): 1000 to 10000 nM; IC50 (KRAS G12V [11]): > 10000 nM; IC50 (KRAS G13C [12]): 1000 to 10000 nM; IC50 (KRAS G13D [13]): > 10000 nM; IC50 (KRAS WT [14]): 1000 to 10000 nM; IC50 (NRAS G12C [15]): 10 to 100 nM; IC50 (KRAS G12C [16]): 10 to 100 nM
C=CC(=O)N1CC[C@H](C(=O)N(C)[C@H](C(=O)N[C@H]2Cc3cc(O)cc(c3)-c3ccc4c(c3)c(c(-c3cccnc3)n4C(C)(C)C#N)CC(C)(C)COC(=O)[C@@H]3CCCN(N3)C2=O)C(C)C)C1 [Example A074]	100 to 1000						100 to 1000		1000 to 10000	
CCn1c(-c2cccnc2[C@H](C)OC)c2c3cc(ccc31)-c1cc(O)cc(c1)C[C@H](NC(=O)[C@H](C(C)C)N(C)C(=O)[C@H]1CN1)C(=O)N1CCC[C@H](N1)C(=O)OCC(C)(C)C2 [Example 112]										IC50 (KRAS G12D [9]): 100 to 1000 nM; IC50 (KRAS G12S [10]): 100 to 1000 nM; IC50 (KRAS G12V [11]): 100 to 1000 nM; IC50 (KRAS G13C [12]): 10 to 100 nM; IC50 (KRAS G13D [13]): 100 to 1000 nM; IC50 (KRAS WT [14]): 10 to 100 nM; IC50 (NRAS G12C [15]): 100 to 1000 nM; IC50 (KRAS G12C [16]): 100 to 1000 nM

Further lines, with some results ahead:

IC50 (KRAS Q61H) [nM]	IC50 (NRAS Q61K) [nM]	IC50 (KRAS G12V [1]) [nM]	IC50 (KRAS G12C [2]) [nM]	IC50 (KRAS G12D [3]) [nM]	IC50 (KRAS G12S [4])	IC50 (KRAS G13C [5]) [nM]	IC50 (KRAS WT [6]) [nM]	IC50 (NRAS Q61R) [nM]	SMILES	also measured
10 to 100	10 to 100								CCn1c(-c2cccnc2[C@H](C)OC)c2c3cc(ccc31)-c1csc(n1)C[C@H](NC(=O)[C@H](C(C)C)N(C)C(=O)N1CC3(CN(C)C3)C1)C(=O)N1CCC[C@H](N1)C(=O)OCC(C)(C)C2 (atropisomer, axis not shown) [Example A268]	
10 to 100	100 to 1000	10 to 100	10 to 100	100 to 1000	10 to 100 nM	100 to 1000	100 to 1000	100 to 1000	CCn1c(-c2cnccc2COC)c2c3cc(ccc31)-c1cc(O)cc(c1)C[C@H](NC(=O)[C@H](C(C)C)N(C)C(=O)[C@H]1CCN(C(=O)/C=C/CN(C)C)C1)C(=O)N1CCC[C@H](N1)C(=O)OCC(C)(C)C2 [Example A087]	
< 10									CCn1c(-c2cccnc2[C@H](C)OC)c2c3cc(ccc31)-c1cc(O)cc(c1)C[C@H](NC(=O)[C@H](C(C)C)N(C)C(=O)[C@@H]1OCC[C@@H]1c1ccccc1)C(=O)N1CCC[C@H](N1)C(=O)OCC(C)(C)C2 [Example A415]	
100 to 1000			100 to 1000						CCn1c(-c2cccnc2[C@H](C)OC)c2c3cc(ccc31)-c1cccc(c1)C[C@H](NC(=O)[C@H](C(C)C)N(C)C(=O)N1CCC13CN(C(=O)C#CC(C)(C)N(C)C)C3)C(=O)N1CCC[C@H](N1)C(=O)OCC(C)(C)C2 (atropisomer, axis not shown) [Example A717]	IC50 (KRAS G13D [7]): 1000 to 10000 nM; IC50 (NRAS G12C [8]): 100 to 1000 nM
